In patent publication US20240124545A1, “COMPOSITIONS AND METHODS RELATING TO THE TREATMENT OF DISEASES” (ILC THERAPEUTICS LIMITED, priority 2021, published 2024):
Where “and” joins values, the source holds several entries; their conditions need not be identical. Identical values can stand only once. Like-named read-outs stand apart in the source and are kept apart here.

Key:
HeLa-CD4-βgal cells [1] = test system: HeLa-CD4-βgal cells
HRSV Long strain = experiment: HRSV infectivity assay, immunostaining readout in HEp-2 cells; type: cell-based, human respiratory syncytial virus (HRSV) Long strain
HIV-1 LAI [2] = details: for HIV Infectivity in HeLa CD4 βgal cells (β-gal units) - antiviral control / HIV Infectivity in HeLa CD4 βgal cells, percentage of vehicle - antiviral control: single data point
in vitro = details: human
HIV-1 LAI [3] = experiment: microbe, parasite or virus in culture; details: Human immunodeficiency virus 1, 48 h, read-out: IC50 (infectivity), Control HIV Inhibitors
HeLa-CD4-βgal cells [4] = experiment: XTT viability (cytotoxicity) assay, uninfected HeLa-CD4-βgal cells (Experiment 4); details: for Viability of HeLa-CD4-βgal cells in the XTT assay (percentage values): 48 hours, single data point; for Viability of Uninfected HeLa-CD4-β gal Cells (A490): XTT, raw absorbance 490 nm

C[S+](C)[O-] [DMSO]
Viability of Uninfected HeLa-CD4-β gal Cells (% vehicle alone), controls (HeLa-CD4-βgal cells [1]): −0.5 ± 0.1 % vehicle alone

NC(=O)c1ncn([C@@H]2O[C@H](CO)[C@@H](O)[C@H]2O)n1 [Rib, ribavirin, reference compound]
HRSV infection blocked by antiviral control (HRSV Long strain; 50 μM): over 99%
HRSV Infectivity in HEp-2 cells (% vehicle) (HRSV Long strain; control antiviral 50 μM, 72 hours): −4.7 % vehicle
HRSV Infectivity in HEp-2 cells - Raw OD- Absorbance (490 nm) (HRSV Long strain; control antiviral 50 μM, duplicate A490 values): 0.195 and 0.176

CC(C)OC(=O)[C@H](C)N[P@](=O)(CO[C@H](C)Cn1cnc2c(N)ncnc21)Oc1ccccc1 [TAF, tenofovir alafenamide]
HIV Infectivity in HeLa CD4 βgal cells (β-gal units) - antiviral control (HIV-1 LAI [2]; 0.00005 μM): 1,043,762 RLU
HIV Infectivity in HeLa CD4 βgal cells, percentage of vehicle - antiviral control (HIV-1 LAI [2]; 0.00005 μM): 91.9 % vehicle
HIV Infectivity in HeLa CD4 βgal cells (β-gal units) - antiviral control (HIV-1 LAI [2]; 0.0003 μM): 1,038,889 RLU
HIV Infectivity in HeLa CD4 βgal cells, percentage of vehicle - antiviral control (HIV-1 LAI [2]; 0.0003 μM): 91.5 % vehicle
HIV Infectivity in HeLa CD4 βgal cells (β-gal units) - antiviral control (HIV-1 LAI [2]; 0.001 μM): 935,932 RLU
HIV Infectivity in HeLa CD4 βgal cells, percentage of vehicle - antiviral control (HIV-1 LAI [2]; 0.001 μM): 82.4 % vehicle
HIV Infectivity in HeLa CD4 βgal cells (β-gal units) - antiviral control (HIV-1 LAI [2]; 0.006 μM): 575,616 RLU
HIV Infectivity in HeLa CD4 βgal cells, percentage of vehicle - antiviral control (HIV-1 LAI [2]; 0.006 μM): 50.6 % vehicle
HIV Infectivity in HeLa CD4 βgal cells (β-gal units) - antiviral control (HIV-1 LAI [2]; 0.03 μM): 145,403 RLU
HIV Infectivity in HeLa CD4 βgal cells, percentage of vehicle - antiviral control (HIV-1 LAI [2]; 0.03 μM): 12.6 % vehicle
HIV Infectivity in HeLa CD4 βgal cells (β-gal units) - antiviral control (HIV-1 LAI [2]; 0.2 μM): 6,426 RLU
HIV Infectivity in HeLa CD4 βgal cells, percentage of vehicle - antiviral control (HIV-1 LAI [2]; 0.2 μM): 0.3 % vehicle
HIV infection blocked by control antivirals (HIV-1 LAI [2]; 0.5 μM): ~100%
HIV Infectivity in HeLa CD4 βgal cells (β-gal units) - antiviral control (HIV-1 LAI [2]; 0.8 μM): 2,064 RLU
HIV Infectivity in HeLa CD4 βgal cells, percentage of vehicle - antiviral control (HIV-1 LAI [2]; 0.8 μM): −0.1 % vehicle
HIV Infectivity in HeLa CD4 βgal cells (β-gal units) - antiviral control (HIV-1 LAI [2]; 4.0 μM): 1,893 RLU
HIV Infectivity in HeLa CD4 βgal cells, percentage of vehicle - antiviral control (HIV-1 LAI [2]; 4.0 μM): −0.1 % vehicle
HIV Infectivity in HeLa CD4 βgal cells (β-gal units) - antiviral control (HIV-1 LAI [2]; 20 μM): 1,475 RLU
HIV Infectivity in HeLa CD4 βgal cells, percentage of vehicle - antiviral control (HIV-1 LAI [2]; 20 μM): −0.1 % vehicle
HIV Infectivity in HeLa-CD4-βgal cells (% vehicle) (HIV-1 LAI [2]; control antiviral 0.5 μM, duplicate data points): 0.0 % vehicle
HIV Infectivity in HeLa CD4 βgal cells (β-galactosidase units) (HIV-1 LAI [2]; control antiviral 0.5 μM, individual values): 3,376 RLU and 3,509 RLU
CC50 at 48 h (in vitro): > 20 µM
IC50 (HIV-1 LAI [3]): 8 nM
Viability of HeLa-CD4-βgal cells in the XTT assay (percentage values) (HeLa-CD4-βgal cells [4]; control antiviral 0.00005 μM): 111.5%
Viability of Uninfected HeLa-CD4-β gal Cells (A490) (HeLa-CD4-βgal cells [4]; control antiviral 0.00005 μM): 0.951
Viability of HeLa-CD4-βgal cells in the XTT assay (percentage values) (HeLa-CD4-βgal cells [4]; control antiviral 0.0003 μM): 101.3%
Viability of Uninfected HeLa-CD4-β gal Cells (A490) (HeLa-CD4-βgal cells [4]; control antiviral 0.0003 μM): 0.872
Viability of HeLa-CD4-βgal cells in the XTT assay (percentage values) (HeLa-CD4-βgal cells [4]; control antiviral 0.001 μM): 104.6%
Viability of Uninfected HeLa-CD4-β gal Cells (A490) (HeLa-CD4-βgal cells [4]; control antiviral 0.001 μM): 0.897
Viability of HeLa-CD4-βgal cells in the XTT assay (percentage values) (HeLa-CD4-βgal cells [4]; control antiviral 0.006 μM): 109.1%
Viability of Uninfected HeLa-CD4-β gal Cells (A490) (HeLa-CD4-βgal cells [4]; control antiviral 0.006 μM): 0.932
Viability of HeLa-CD4-βgal cells in the XTT assay (percentage values) (HeLa-CD4-βgal cells [4]; control antiviral 0.03 μM): 103.2%
Viability of Uninfected HeLa-CD4-β gal Cells (A490) (HeLa-CD4-βgal cells [4]; control antiviral 0.03 μM): 0.886
Viability of HeLa-CD4-βgal cells in the XTT assay (percentage values) (HeLa-CD4-βgal cells [4]; control antiviral 0.2 μM): 104.5%
Viability of HeLa-CD4-βgal cells in the XTT assay (percentage values) (HeLa-CD4-βgal cells [4]; control antiviral 0.8 μM): 101.5%
Viability of Uninfected HeLa-CD4-β gal Cells (A490) (HeLa-CD4-βgal cells [4]; control antiviral 0.8 μM): 0.873
Viability of HeLa-CD4-βgal cells in the XTT assay (percentage values) (HeLa-CD4-βgal cells [4]; control antiviral 4.0 μM): 104.1%
Viability of Uninfected HeLa-CD4-β gal Cells (A490) (HeLa-CD4-βgal cells [4]; control antiviral 4.0 μM): 0.894
Viability of HeLa-CD4-βgal cells in the XTT assay (percentage values) (HeLa-CD4-βgal cells [4]; control antiviral 20 μM): 88.2%
Viability of Uninfected HeLa-CD4-β gal Cells (A490) (HeLa-CD4-βgal cells [4]; control antiviral 20 μM): 0.770
